Results as given in patent US7169789B2 (Kirin Beer Kabushiki Kaisha, priority 1999, dated 2007).
Where two headings read alike, the source gives them in different places.

Tests used:
Human glioma cells GL07 = assay: Antitumor effect on human glioma cells (GL07) transplanted into nude mice; assay type: in vivo; conditions: 20 mg/kg once a day for 9 days; for inhibition in vivo at 20 mg/kg: Mus musculus, Glioma cell, 216 h, read-out: TGIR, % (tumor growth inhibition rate)
In short: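 GL07 xenografts in nude mice, grouped (n=4) at ~100 mm^3 tumor volume. Test compound 20 mg/kg p.o. or i.p. once daily for 9 days; vehicle controls. TGIR = (1−Tx/Cx)×100 from tumor volumes normalized to day-of-start volume = 1.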

[1] = test system: A375 human melanoma cells; assay: Karyomorphosis test; assay type: cell-based; conditions: test compound 10 μM and 1 μM, 48 hr, nuclei stained with propidium iodide
Experimental: A375 human melanoma cells (2×10^4) (obtained from Japanese Foundation for Cancer Research) were incolulated on a culture slide (manufactured by Falcon) and were cultured at 37° C. After the elapse of 5 hr from the initiation of the cultivation, the test compound was added to 10 μM and 1 μM, and the cultivation was continued for additional 48 hr. After the fixation of cells, 50 μg/ml propidium iodide solution containing ribonuclease (200 μg/ml) was added to stain nuclei. The stained nuclei were observed under a fluorescent microscope to analyze the nuclei for abnormality of karyomorphosis.

[2] = test system: activation of MAPK within vascular endothelial cells induced by VEGF stimulation; assay: Inhibitory activity against activation of MAPK within vascular endothelial cells induced by VEGF stimulation; assay type: cell-based; conditions: human funicular venous vascular endothelial cells, VEGF 50 ng/ml, phosphorylated MAPK by immunoblotting
In short: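 Serum-starved (0.5% FCS, 24 h) human umbilical vein endothelial cells pretreated with compound 1 h at 37 °C, then stimulated with 50 ng/ml recombinant human VEGF for 8 min.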

IC50 ([2]; Endothelial cell) [nM] | IC50 [2] [nM] | Structure (SMILES) | inhibition in vivo at 20 mg/kg (Human glioma cells GL07; GL07, oral) [%] | Change in morphosis [1] | TGIR, % (tumor growth inhibition rate) (Human glioma cells GL07; GL07, intraperitoneal) [%] | inhibition in vivo at 20 mg/kg (Human glioma cells GL07; ip, GL07, intraperitoneal) [%] | TGIR, % (tumor growth inhibition rate) (Human glioma cells GL07; GL07, oral) [%]
 | 3.9 | COc1cc2nccc(Oc3ccc(NC(=O)Nc4ccc(F)cc4C)c(C)c3C)c2cc1OC [Example 25, N-{4-[(6,7-Dimethoxy-4-guinolyl)oxy]-2,3-dimethylphenyl}-N′-(4-fluoro-2-methylphenyl)urea] |  | (−) (the change in karyomorphosis of cells did not take place at 10 μM) | 68 |  | 
2.3 |  | COc1cc2nccc(Oc3cc(C)c(NC(=O)Nc4ccc(F)cc4F)cc3C)c2cc1OC [Example 37, N-(2,4-Difluorophenyl)-N′-{4-[(6,7-dimethoxy-4-quinolyl)oxy]-2,5-dimethylphenyl}urea] |  | (−) (the change in karyomorphosis of cells did not take place at 10 μM) |  | 70 | 
4.4 |  | COc1cc2nccc(Oc3ccc(NC(=O)Nc4ccc(Br)cn4)c(C)c3C)c2cc1OC [Example 29, N-(5-Bromo-2-pyridyl)-N′-{4-[(6,7-dimethoxy-4-quinolyl)oxy]-2,3-dimethylphenyl}urea] | 64 | (−) (the change in karyomorphosis of cells did not take place at 10 μM) |  |  | 
0.5 |  | COc1cc2nccc(Oc3ccc(NC(=O)Nc4ccc(F)cc4F)c([N+](=O)[O-])c3)c2cc1OC [Example 48, N-(2,4-Difluorophenyl)-N′-{4-[(6,7-dimethoxy-4-quinolyl)oxy]-2-nitrophenyl}urea] |  | (−) (the change in karyomorphosis of cells did not take place at 10 μM) |  | 90 | 
 | 0.6 | COc1cc2nccc(Oc3ccc(NC(=O)Nc4ccc(F)cc4F)c(C)c3C)c2cc1OC [Example 24, N-(2,4-Difluorophenyl)-N′-{4-[(6,7-dimethoxy-4-guinolyl)oxy]-2,3-dimethylphenyl}urea] |  | (−) (the change in karyomorphosis of cells did not take place at 10 μM) |  |  | 63

Continued, compound first:

Structure (SMILES) | IC50 ([2]; Endothelial cell) [nM] | IC50 [2] [nM] | inhibition in vivo at 20 mg/kg (Human glioma cells GL07; GL07, oral) [%] | Change in morphosis [1] | TGIR, % (tumor growth inhibition rate) (Human glioma cells GL07; GL07, intraperitoneal) [%] | inhibition in vivo at 20 mg/kg (Human glioma cells GL07; ip, GL07, intraperitoneal) [%] | TGIR, % (tumor growth inhibition rate) (Human glioma cells GL07; GL07, oral) [%]
COc1ccccc1NC(=O)Nc1ccc(Oc2ccnc3cc(OC)c(OC)cc23)cc1Cl [Example 18, N-{2-Chloro-4-[(6,7-dimethoxy-4-quinolyl)oxy]phenyl}-N′-(2-methoxyphenyl)urea] | 0.6 |  | 57 | (−) (the change in karyomorphosis of cells did not take place at 10 μM) |  |  | 
COc1cc2nccc(Oc3ccc(NC(=O)Nc4ccc(Br)cn4)c(Cl)c3)c2cc1OC [Example 17, N-(5-Bromo-2-pyridyl)-N′-{2-chloro-4-[(6,7-dimethoxy-4-guinolyl)oxy]phenyl}urea] |  | 11 |  | (−) (the change in karyomorphosis of cells did not take place at 10 μM) | 85 |  | 
CCCNC(=O)Nc1ccc(Oc2ccnc3cc(OC)c(OC)cc23)cc1Cl [Example 13, N-{2-chloro-4-[(6,7-dimethoxy-4-quinolyl)oxy]-phenyl}-N′-propylurea] | 2.2 |  |  | (−) (the change in karyomorphosis of cells did not take place at 10 μM) |  | 52 | 
COc1cc2nccc(Oc3ccc(NC(=O)Nc4ccc(F)cc4C)c(Cl)c3)c2cc1OC [Example 14, N-{2-Chloro-4-[(6,7-dimethoxy-4-quinolyl)oxy]phenyl}-N′-(4-fluoro-2-methylphenyl)urea] | 0.7 |  |  | (−) (the change in karyomorphosis of cells did not take place at 10 μM) |  | 81 | 
COc1cc2nccc(Oc3ccc(NC(=O)Nc4ccc(Cl)cn4)c(Cl)c3)c2cc1OC [Example 16, N-{2-Chloro-4-[(6,7-dimethoxy-4-quinolyl)oxy]phenyl}-N′-(5-chloro-2-pyridyl)urea] | 2.9 |  |  | (−) (the change in karyomorphosis of cells did not take place at 10 μM) |  | 77 | 
